Test results taken from patent publication US20220162191A1, “SMALL MOLECULE MODULATORS OF IL-17” (LEO PHARMA A/S, priority 2019, published 2022).

Molecular target: T1, human IL-17AA (Homo sapiens, UniProt Q16552)
T1 construct: host or cells: HEK (human embryonic kidney) cells
T1 sequence (Q16552 24-155) 1: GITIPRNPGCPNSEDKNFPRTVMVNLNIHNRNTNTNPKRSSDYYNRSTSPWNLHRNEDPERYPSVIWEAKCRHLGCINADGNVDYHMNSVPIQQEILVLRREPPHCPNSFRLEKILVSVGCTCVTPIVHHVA
T1 sequence (Q16552 24-155) 2: T1 sequence (Q16552 24-155) 1
Experiment: IL-8 release assay in human epithelial keratinocytes adult (HEKa)
Format: cell-based
Settings: 3 ng/ml human IL-17AA + 10 ng/ml human TNFalpha, 68-72 h, IL-8 by HTRF, read-out: Rel EC50 L-8 release assay
Procedure, shortened: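 Adult human keratinocytes in Epilife with HKGS minus hydrocortisone, treated with compound then stimulated with final 3 ng/ml HEK-derived human IL-17AA plus 10 ng/ml TNF-alpha for 68–72 h at 37 °C; TNF-alpha alone defines 100% inhibition. Secreted IL-8 by HTRF; relative IC50 and Emax from four-parameter fits.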

Cn1cnnc1-c1ccc(NC(=O)C(Cc2cc(-c3cccc(OC(F)(F)F)c3)ccc2Cl)NC(=O)c2ccnn2C)cc1 (stereo not shown) [Example 111, N-[1-[[2-chloro-5-[3-(trifluoromethoxy)phenyl]phenyl]methyl]-2-[4-(4-methyl-1,2,4-triazol-3-yl)anilino]-2-oxo-ethyl]-2-methyl-pyrazole-3-carboxamide]
EC50: 0.1 to 1 µM
